We go through twelve compounds from patent publication US6518005B2, “Silver halide multilayer color photographic material” (Ferrania, S.p.A., priority 2000, dated 2003).

Series [1] in a line: Absorption of methanol solutions of the dyes (λmax and density at 400, 450, 500 nm). Type of series: physicochemical. As to conditions: for D400: density measured at 400 nm; for D400 / D450 / D500: methanol solution with density 0.6 at λmax; for D450: density measured at 450 nm; for D500: density measured at 500 nm; for λmax (nm): methanol solution, density 0.6 at λmax; for spectral region absorbed (in words): methanol solutions, from the data of Table 1.

A short description of series [2]: Solubility in tricresylphosphate and crystallization tendency on cooling. As to conditions: for Solubility: in tricresylphosphate, under stirring at 60° C.; for Not-to-Crystallize Tendency: tricresylphosphate solution cooled at room temperature. Type of series: physicochemical. The protocol: The compounds shown in Table 2 were added with a quantity of tricresylphosphate under stirring at 60° C. up to obtain a limpid solution. The samples were then cooled at room temperature and the crystallization tendency thereof was evaluated.

For `CCCCS(=O)(=O)Nc1ccc(C2=NOC(=O)/C2=C\C2CN(CCC(=O)OCC)c3ccccc32)cc1` (single isomer, unassigned) [B], in series [1], the D400 is listed as 0.09, the D450 was 0.53, the D500 is recorded as 0.10 and the “λmax (nm)” value is reported as 463 nm. For the same compound, the “spectral region absorbed (in words)” value in series [1] is “mainly absorb in the blue region, but that the green region (500-600 nm) is also interested”.
Take `CCCCS(=O)(=O)Nc1ccc(C2=NOC(=O)/C2=C\C2CN(CCC(=O)OCC)c3ccccc32)cc1` (centres unmarked) [C]: in series [1], the D400 was determined as 0.45, the D450 turned out to be 0.03, the D500 came out at 0.00 and the “λmax (nm)” value was determined as 377 nm. The “spectral region absorbed (in words)” value in series [1] (listed as Sample 11) is listed as “mainly absorb in the ultraviolet”.
On to `CCCCS(=O)(=O)Nc1ccc(C2=NOC(=O)/C2=C\C2CN(CCC(=O)OCC)c3ccccc32)cc1` (centres unmarked) [Compound G], for which, in series [1], the D400 is 0.27, the D450 is reported as 0.55, the D500 turned out to be 0.00 and the “λmax (nm)” value came to 438 nm. In addition, in series [2], the Solubility entry is recorded as “good” and the “Not-to-Crystallize Tendency” value is listed as “not good”.
Turning to `C=CCn1cccc1/C=C1\C(=O)ON=C1c1ccc(NS(=O)(=O)CCCC)cc1` [Compound I-2], in series [1], the D400 is 0.41, the D450 is given as 0.24, the D500 is 0.00 and the “λmax (nm)” value was 421 nm.
On the same counts, the results for `COc1ccc(C2=NOC(=O)/C2=C\c2ccc[nH]2)cc1` [Compound I-3] are 0.48, 0.08, 0.00 and 418 nm.
On to `CCOC(=O)CCn1cccc1/C=C1\C(=O)ON=C1c1ccc(OC)cc1` [Compound I-4], for which, in series [1], the D400 worked out at 0.44, the D450 came to 0.22, the D500 came to 0.00 and the “λmax (nm)” value was found to be 420 nm.
As for `CCOC(=O)Cn1cccc1/C=C1\C(=O)ON=C1c1ccc(OC)cc1` [Compound I-5], in series [1], the D400 is 0.47, the D450 came to 0.21, the D500 was 0.00 and the “λmax (nm)” value is 419 nm.
Regarding `C=CCn1cccc1/C=C1\C(=O)ON=C1C(C)(C)C` [Compound I-6], in series [1], the D400 was determined as 0.52, the D450 turned out to be 0.17, the D500 is given as 0.00 and the “λmax (nm)” value was determined as 415 nm.
As to `CCCCS(=O)(=O)Nc1ccc(C2=NOC(=O)/C2=C\c2cccn2C(CC)C(=O)OCCOCC)cc1` (centres unmarked) [Compound I-7], in series [1], the D400 is given as 0.42, the D450 is recorded as 0.03, the D500 was determined as 0.00 and the “λmax (nm)” value is 423 nm. Further, the “Not-to-Crystallize Tendency” value in series [2] is listed as “good”. Moreover, the “Not-to-Crystallize Tendency” value in series [2] (listed as Sample 7) is “do not exhibit any tendency to crystallize”.
Regarding `CCCCS(=O)(=O)Nc1ccc(C2=NOC(=O)/C2=C\C2CN(CCC(=O)OCC)c3ccccc32)cc1` (centres unmarked) [D], in series [1], the D400 is given as 0.35, the D450 stood at 0.00, the D500 stood at 0.00 and the “λmax (nm)” value amounted to 374 nm. Moreover, the “spectral region absorbed (in words)” value in series [1] (listed as Sample 12) was “mainly absorb in the ultraviolet”.
In the case of `CCCCS(=O)(=O)Nc1ccc(C2=NOC(=O)/C2=C\C2CN(CCC(=O)OCC)c3ccccc32)cc1` (centres unmarked) [E], in series [1], the D400 was 0.26, the D450 worked out at 0.50, the D500 was 0.00 and the “λmax (nm)” value is 437 nm. Further, in series [2], the Solubility result is reported as “good” and the “Not-to-Crystallize Tendency” value was “not good”.
Consider `CCCCS(=O)(=O)Nc1ccc(C2=NOC(=O)/C2=C\C2CN(CCC(=O)OCC)c3ccccc32)cc1` (centres unmarked) [F], for which, in series [1], the D400 was found to be 0.28, the D450 was found to be 0.54, the D500 came out at 0.00 and the “λmax (nm)” value is recorded as 437 nm. In series [2], the Solubility result is reported as “good” and the “Not-to-Crystallize Tendency” value is reported as “not good”.
